From paper PMC5353780, “A novel benzo-heterocyclic amine derivative N30 inhibits influenza virus replication by depression of Inosine-5’-Monophospate Dehydrogenase activity” (Virology Journal, 2017)
Counter-ions that a name gives are not always drawn.

Tests used:
Assay in all cases: microbe, parasite or virus in culture
Conditions in all cases: for IC50: Influenza A virus, MDCK; for SI: TC50/IC50
A/tianjinjinnan/15/2009 = assay type: cell-based, Influenza A virus (H1N1, oseltamivir-resistant)
[1] = tested on: A/liaoningzhenxing/1109/2010; assay type: cell-based, Influenza A virus (H1N1, oseltamivir-resistant)
A/fujiantongan/196/2009 = assay type: cell-based, Influenza A virus (H3N2, amantadine-resistant)
A/hunanzhuhui/1222/2010 = assay type: cell-based, Influenza A virus (H3N2, amantadine-resistant)

SMILES	IC50 (A/tianjinjinnan/15/2009)	SI (A/tianjinjinnan/15/2009)	IC50 [1]	SI [1]	IC50 (A/fujiantongan/196/2009)	SI (A/fujiantongan/196/2009)	IC50 (A/hunanzhuhui/1222/2010)	SI (A/hunanzhuhui/1222/2010)
O=[N+]([O-])c1ccc(CNc2ccc3ncsc3c2)cc1 [N30, N-(4-nitrophenylmethyl) benzothiazole-6-amine]	1.67 ± 0.49 µM	39.92	3.43 ± 3.36 µM	19.44	1.13 ± 0.43 µM	59.00	1.76 ± 0.24 µM	37.89
NC12CC3CC(CC(C3)C1)C2 [AH, amantadine hydrochloride]	18.2 ± 0.24 µM	–	10.13 ± 0.04 µM	–	78.8 ± 3.04 µM	–	57.2 ± 2.23 µM	–
NC(=O)c1ncn([C@@H]2O[C@H](CO)[C@@H](O)[C@H]2O)n1 [RBV, Ribavirin]	2.54 ± 1.25 µM	–	4.92 ± 3.02 µM	–	4.42 ± 0.74 µM	–	–	–
CCC(CC)O[C@@H]1C=C(C(=O)O)C[C@H](N)[C@H]1NC(C)=O [OC, oseltamivir carboxylate]	2.57 ± 0.1 µM	>19.45	3.2 ± 0.21 µM	>15.58	0.28 ± 0.01 µM	>178.57	0.78 ± 0.02 µM	>64.10
